Measured values from patent publication US20150087627A1, “COMBINATION OF KINASE INHIBITORS AND USES THEREOF” (Intellikine LLC, priority 2011, published 2015).

Legend:
Format in all cases: biochemical
PI3K γ (p110γ) = biological target: T1, PI3K γ (p110γ) (Homo sapiens, UniProt P48736); assay: PI 3-Kinase (human) HTRF assay, PI3K γ; details: read-out: PI3K γ IC50
T1 construct: purchased Upstate / Millipore Corporation

PI3K α (p110α/p85α) = biological target: T2, PI3K α (p110α/p85α) (Homo sapiens, UniProt P42336); assay: PI 3-Kinase (human) HTRF assay, PI3K α; details: read-out: PI3K α IC50
T2 construct: purchased Upstate / Millipore Corporation

PI3K β (p110β/p85α) = biological target: T3, PI3K β (p110β/p85α) (Homo sapiens, UniProt P42338); assay: PI 3-Kinase (human) HTRF assay, PI3K β; details: read-out: PI3K β IC50
T3 construct: purchased Upstate / Millipore Corporation
Experimental: Briefly, the assay is a time resolved FRET assay that indirectly measures PIP3 product formed by the activity of a PI3-K. The kinase reaction is performed in a microtiter plate (e.g., a 384 well microtiter plate). The total reaction volume is approximately 20 ul per well. In the first step, each well receives 2 ul of test compound in 20% dimethylsulphoxide resulting in a 2% DMSO final concentration. […] The plate is sealed and incubated for 15 minutes at room temperature. […] The plate is sealed and incubated for 1 hour at room temperature. The reaction is stopped by adding 5 ul of Stop Solution per well and then 5 ul of Detection Mix is added per well. The plate is sealed, incubated for 1 hour at room temperature, and then read on an appropriate plate reader. Data is analyzed and IC50s are generated using GraphPad Prism 5.

PI3K δ = biological target: T4, PI3K δ (Homo sapiens, UniProt O00329); assay: PI 3-Kinase (human) HTRF assay, PI3K δ; details: read-out: PI3K δ IC50
T4 construct: purchased Upstate / Millipore Corporation
T4 sequence (O00329 whole entry): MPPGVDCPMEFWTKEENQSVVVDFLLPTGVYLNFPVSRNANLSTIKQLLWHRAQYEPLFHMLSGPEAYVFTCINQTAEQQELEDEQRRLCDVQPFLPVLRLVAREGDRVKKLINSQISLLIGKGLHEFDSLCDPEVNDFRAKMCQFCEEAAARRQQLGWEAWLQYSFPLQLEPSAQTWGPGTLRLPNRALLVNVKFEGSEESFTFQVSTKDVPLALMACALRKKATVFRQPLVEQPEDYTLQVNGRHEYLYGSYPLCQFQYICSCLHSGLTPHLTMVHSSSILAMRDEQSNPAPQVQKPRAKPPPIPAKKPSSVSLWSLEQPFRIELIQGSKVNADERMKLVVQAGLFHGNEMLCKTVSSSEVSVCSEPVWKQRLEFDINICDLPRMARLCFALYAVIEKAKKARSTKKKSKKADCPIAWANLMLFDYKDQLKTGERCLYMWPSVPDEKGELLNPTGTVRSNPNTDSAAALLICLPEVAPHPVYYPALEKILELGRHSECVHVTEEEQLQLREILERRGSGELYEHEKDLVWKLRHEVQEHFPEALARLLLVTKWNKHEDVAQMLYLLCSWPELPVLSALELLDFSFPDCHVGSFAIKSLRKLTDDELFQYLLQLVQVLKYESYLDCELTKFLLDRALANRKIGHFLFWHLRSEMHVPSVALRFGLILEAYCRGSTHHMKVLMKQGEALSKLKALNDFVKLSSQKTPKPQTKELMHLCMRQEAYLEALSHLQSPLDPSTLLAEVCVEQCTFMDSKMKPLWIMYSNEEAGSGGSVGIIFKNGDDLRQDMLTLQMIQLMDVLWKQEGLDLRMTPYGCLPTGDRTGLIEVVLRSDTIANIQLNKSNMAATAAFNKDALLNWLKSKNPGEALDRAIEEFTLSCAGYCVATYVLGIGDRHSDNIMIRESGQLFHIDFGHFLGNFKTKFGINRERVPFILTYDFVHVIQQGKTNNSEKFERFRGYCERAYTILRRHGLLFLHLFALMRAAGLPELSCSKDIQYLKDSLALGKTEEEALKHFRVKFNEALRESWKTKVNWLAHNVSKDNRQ
T4 sequence (P27986 whole entry partner): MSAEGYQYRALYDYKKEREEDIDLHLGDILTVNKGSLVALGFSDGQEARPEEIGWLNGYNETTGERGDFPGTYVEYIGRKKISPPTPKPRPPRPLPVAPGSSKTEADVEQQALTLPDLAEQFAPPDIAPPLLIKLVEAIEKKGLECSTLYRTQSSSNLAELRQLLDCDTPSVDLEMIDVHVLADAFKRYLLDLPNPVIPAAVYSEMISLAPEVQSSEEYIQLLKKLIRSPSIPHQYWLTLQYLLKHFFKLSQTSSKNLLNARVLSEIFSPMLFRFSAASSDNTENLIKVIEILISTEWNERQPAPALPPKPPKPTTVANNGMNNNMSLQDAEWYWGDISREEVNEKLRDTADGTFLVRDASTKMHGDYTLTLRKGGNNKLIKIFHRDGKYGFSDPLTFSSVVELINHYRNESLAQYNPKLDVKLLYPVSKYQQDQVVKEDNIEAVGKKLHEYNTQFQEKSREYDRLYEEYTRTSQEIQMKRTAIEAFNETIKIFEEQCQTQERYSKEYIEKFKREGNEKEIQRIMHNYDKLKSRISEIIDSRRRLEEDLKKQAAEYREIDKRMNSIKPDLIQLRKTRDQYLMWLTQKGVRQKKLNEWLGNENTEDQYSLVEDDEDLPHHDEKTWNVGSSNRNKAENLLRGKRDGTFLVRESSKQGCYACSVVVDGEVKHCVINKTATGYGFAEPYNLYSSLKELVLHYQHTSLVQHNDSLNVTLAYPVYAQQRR

T2 sequence (P42336 whole entry): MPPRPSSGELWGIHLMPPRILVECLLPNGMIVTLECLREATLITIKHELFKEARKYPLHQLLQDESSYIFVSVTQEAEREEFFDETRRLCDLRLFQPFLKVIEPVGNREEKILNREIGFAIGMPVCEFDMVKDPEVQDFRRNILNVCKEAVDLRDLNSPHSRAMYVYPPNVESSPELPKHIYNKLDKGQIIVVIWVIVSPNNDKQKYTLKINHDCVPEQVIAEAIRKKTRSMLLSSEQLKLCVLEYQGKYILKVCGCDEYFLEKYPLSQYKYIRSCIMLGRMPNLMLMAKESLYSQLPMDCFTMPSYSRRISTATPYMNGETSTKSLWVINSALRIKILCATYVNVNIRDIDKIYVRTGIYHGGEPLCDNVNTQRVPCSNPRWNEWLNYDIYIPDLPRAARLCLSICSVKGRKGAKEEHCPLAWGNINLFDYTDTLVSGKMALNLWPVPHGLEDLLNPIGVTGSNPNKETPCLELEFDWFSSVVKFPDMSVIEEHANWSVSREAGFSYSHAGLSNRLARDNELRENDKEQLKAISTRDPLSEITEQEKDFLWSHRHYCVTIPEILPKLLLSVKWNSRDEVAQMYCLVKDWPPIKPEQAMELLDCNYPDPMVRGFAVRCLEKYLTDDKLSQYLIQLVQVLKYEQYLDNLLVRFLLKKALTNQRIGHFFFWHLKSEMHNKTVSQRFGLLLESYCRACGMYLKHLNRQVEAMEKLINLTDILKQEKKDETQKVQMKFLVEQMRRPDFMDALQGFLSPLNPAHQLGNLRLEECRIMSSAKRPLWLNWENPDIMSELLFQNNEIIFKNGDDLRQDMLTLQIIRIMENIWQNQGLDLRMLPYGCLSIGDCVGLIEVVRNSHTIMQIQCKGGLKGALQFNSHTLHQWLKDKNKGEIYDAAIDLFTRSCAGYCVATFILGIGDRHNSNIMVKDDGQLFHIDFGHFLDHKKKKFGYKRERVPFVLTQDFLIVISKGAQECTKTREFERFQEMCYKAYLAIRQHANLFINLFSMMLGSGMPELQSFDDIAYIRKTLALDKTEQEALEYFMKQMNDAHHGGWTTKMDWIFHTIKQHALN
T2 sequence (P27986 whole entry partner): as the sequence (P27986 whole entry partner) above
T1 sequence (P48736 whole entry): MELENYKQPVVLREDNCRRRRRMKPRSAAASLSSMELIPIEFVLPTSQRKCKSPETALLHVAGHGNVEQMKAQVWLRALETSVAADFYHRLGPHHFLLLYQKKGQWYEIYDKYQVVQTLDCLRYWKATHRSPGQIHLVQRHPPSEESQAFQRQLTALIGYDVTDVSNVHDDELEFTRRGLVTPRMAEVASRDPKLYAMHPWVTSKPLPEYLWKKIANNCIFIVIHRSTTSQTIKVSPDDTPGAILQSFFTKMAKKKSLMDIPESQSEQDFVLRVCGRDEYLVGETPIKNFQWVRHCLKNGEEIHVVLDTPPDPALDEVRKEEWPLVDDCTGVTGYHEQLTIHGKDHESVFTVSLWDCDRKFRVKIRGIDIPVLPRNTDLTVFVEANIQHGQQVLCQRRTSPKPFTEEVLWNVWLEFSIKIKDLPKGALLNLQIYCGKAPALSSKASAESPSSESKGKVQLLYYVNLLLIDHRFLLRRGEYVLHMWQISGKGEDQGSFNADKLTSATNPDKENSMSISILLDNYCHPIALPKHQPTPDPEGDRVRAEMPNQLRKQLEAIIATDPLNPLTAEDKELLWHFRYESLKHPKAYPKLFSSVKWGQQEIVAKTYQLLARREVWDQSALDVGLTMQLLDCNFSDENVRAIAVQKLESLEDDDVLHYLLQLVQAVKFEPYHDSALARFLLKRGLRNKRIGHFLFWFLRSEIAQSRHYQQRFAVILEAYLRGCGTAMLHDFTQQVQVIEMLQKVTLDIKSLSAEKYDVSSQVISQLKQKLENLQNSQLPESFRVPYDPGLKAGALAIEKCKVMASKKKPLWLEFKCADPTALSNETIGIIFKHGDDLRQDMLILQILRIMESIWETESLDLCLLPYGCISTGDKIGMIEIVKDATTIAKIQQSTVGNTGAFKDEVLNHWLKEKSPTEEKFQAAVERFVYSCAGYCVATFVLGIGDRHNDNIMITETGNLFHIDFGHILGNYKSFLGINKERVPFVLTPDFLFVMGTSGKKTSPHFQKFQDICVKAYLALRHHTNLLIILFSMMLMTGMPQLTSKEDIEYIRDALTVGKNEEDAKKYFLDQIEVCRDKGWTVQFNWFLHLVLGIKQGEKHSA
T3 sequence (P42338 whole entry): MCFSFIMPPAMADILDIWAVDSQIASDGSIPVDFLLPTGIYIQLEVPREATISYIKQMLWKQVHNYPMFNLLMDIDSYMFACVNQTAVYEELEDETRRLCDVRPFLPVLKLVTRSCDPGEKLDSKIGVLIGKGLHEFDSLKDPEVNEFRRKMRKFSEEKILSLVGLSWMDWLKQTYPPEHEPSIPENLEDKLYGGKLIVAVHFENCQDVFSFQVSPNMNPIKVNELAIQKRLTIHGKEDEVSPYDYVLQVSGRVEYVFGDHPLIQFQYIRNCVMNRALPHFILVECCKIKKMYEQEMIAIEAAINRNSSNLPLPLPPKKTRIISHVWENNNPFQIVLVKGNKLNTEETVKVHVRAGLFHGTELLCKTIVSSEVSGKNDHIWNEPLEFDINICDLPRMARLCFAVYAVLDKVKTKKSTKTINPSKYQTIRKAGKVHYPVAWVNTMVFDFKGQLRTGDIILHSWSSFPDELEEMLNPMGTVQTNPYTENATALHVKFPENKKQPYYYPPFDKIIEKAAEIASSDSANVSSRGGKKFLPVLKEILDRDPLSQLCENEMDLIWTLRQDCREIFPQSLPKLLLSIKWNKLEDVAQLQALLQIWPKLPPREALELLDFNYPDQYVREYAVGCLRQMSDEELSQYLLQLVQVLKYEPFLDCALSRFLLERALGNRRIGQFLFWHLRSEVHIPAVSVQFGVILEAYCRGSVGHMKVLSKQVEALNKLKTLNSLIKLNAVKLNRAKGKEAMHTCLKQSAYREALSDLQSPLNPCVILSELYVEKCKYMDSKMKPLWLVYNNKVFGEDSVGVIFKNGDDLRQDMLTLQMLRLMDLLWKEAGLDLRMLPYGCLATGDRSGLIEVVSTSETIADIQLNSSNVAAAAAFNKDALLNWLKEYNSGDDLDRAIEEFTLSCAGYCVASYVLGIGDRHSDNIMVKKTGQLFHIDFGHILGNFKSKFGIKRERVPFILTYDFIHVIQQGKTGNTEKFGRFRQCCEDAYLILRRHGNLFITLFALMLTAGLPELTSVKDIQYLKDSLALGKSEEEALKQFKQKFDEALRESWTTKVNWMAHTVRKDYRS
T3 sequence (P27986 whole entry partner): as the sequence (P27986 whole entry partner) above

| SMILES | IC50 (PI3K γ (p110γ)) [µM] | IC50 (PI3K α (p110α/p85α)) [µM] | IC50 (PI3K β (p110β/p85α)) [µM] | IC50 (PI3K δ) [µM] |
| --- | --- | --- | --- | --- |
| Nc1nc2cc(-c3ccc4ncc(NCCCN5CCOCC5)nc4c3)ccc2o1 [Compound 222] | < 1 | < 0.1 | < 1 | < 0.1 |
| Cc1ccn(C2CCN(c3cnc4ccc(-c5ccc6oc(N)nc6c5)cc4n3)CC2)n1 [Compound 223] | < 1 | < 0.1 | > 10 | > 10 |
| CCN(CC)CCn1cnc2ccc(-c3ccc4oc(N)nc4c3)cc2c1=O [Compound 224] | > 10 | < 10 | > 10 | > 10 |
| Nc1nc2cc(-c3ccc4ncc(N5CCN(C(=O)[C@H]6CCCN6)CC5)nc4c3)ccc2o1 [Compound 225] | < 0.1 | < 0.1 | < 0.1 | < 0.1 |
| Nc1nc2cc(-c3ccc4ncc(N5CCN(C(=O)C6(N)CC6)CC5)nc4c3)ccc2o1 [Compound 226] | < 10 | < 1 | > 10 | < 10 |
| Nc1nc2ccc(-c3ccc4nnc(-c5ccncc5)n4c3)cc2o1 [Compound 230] | < 1 | < 10 | < 1 | < 10 |
| COc1nc(-c2ccc3oc(N)nc3c2)cnc1N [Compound 238] | < 1 | < 1 | < 1 | < 10 |
| CC(=O)Nc1nc2ccc(-c3ccc4nc(N)oc4c3)cc2s1 [Compound 242] | < 0.1 | < 0.1 | < 0.1 | > 10 |
| Nc1nc2ccc(-c3ccc4nc(N)sc4c3)cc2o1 [Compound 243] | < 0.1 | < 1 | < 0.1 | > 10 |
| Nc1cn2cc(-c3ccc4oc(N)nc4c3)ccc2n1 [Compound 245] | < 1 | < 1 | < 10 | > 10 |
| Nc1nc2ccc(-c3ccc4nc(N)oc4c3)cc2o1 [Compound 246] | > 10 | > 10 | > 10 | > 10 |
| Nc1cn2cc(-c3ccc4nc(N)oc4c3)ccc2n1 [Compound 247] | < 10 | > 10 | < 10 | > 10 |
| Nc1nc2cc(-c3ccc4sc(N)nc4c3)ccc2o1 [Compound 248] | < 1 | < 10 | < 1 | < 10 |
| Nc1nc2ccc(-c3ccc4sc(N)nc4c3)cc2o1 [Compound 249] | < 0.1 | < 0.1 | < 0.1 | < 1 |
| CC(=O)Nc1nc2cc(-c3ccc4oc(N)nc4c3)ccc2s1 [Compound 250] | < 0.1 | > 10 | > 10 | > 10 |
| CC(=O)Nc1nc2cc(-c3ccc4nc(N)oc4c3)ccc2s1 [Compound 251] | < 0.1 | < 0.1 | < 0.1 | < 0.1 |
| Nc1nc2cc(-c3ccc4ncc(N5CC(C(=O)N6CCOCC6)C5)nc4c3)ccc2o1 [Compound 252] | < 10 | > 10 | < 10 | < 10 |
| CN1CCN(C(=O)C2CN(c3cnc4ccc(-c5ccc6oc(N)nc6c5)cc4n3)C2)CC1 [Compound 253] | < 10 | > 10 | < 10 | < 10 |
| Nc1nc2cc(-c3ccc4ncn(C5CC5)c(=O)c4c3)ccc2o1 [Compound 254] | < 1 | < 1 | > 10 | > 10 |
| Nc1nc2cc(-c3ccc4ncn(CCN5CCCC5)c(=O)c4c3)ccc2o1 [Compound 255] | < 10 | < 10 | < 10 | < 10 |
| Nc1nc2cc(-c3ccc4ncn(C5CCCC5)c(=O)c4c3)ccc2o1 [Compound 256] | > 10 | < 10 | > 10 | > 10 |
| NC(=O)[C@@H]1CCCN1c1cnc2ccc(-c3ccc4oc(N)nc4c3)cc2n1 [Compound 257] | > 10 | < 0.1 | > 10 | > 10 |
| NC(=O)[C@@H]1CCCN1C(=O)c1cnc2ccc(-c3ccc4oc(N)nc4c3)cn12 [Compound 259] | < 10 | < 1 | > 10 | > 10 |
| Nc1nc2cc(-c3ccc4ncc(C(=O)N5CCN(C6CC6)CC5)n4c3)ccc2o1 [Compound 263] | < 10 | < 0.1 | < 10 | < 10 |
| Nc1nc2cc(-c3ccc4ncc(C(=O)N5CC(N6CCOCC6)C5)n4c3)ccc2o1 [Compound 266] | < 1 | < 0.1 | < 10 | < 1 |
| C[C@H]1CN(C(=O)C2CN(c3cnc4ccc(-c5ccc6oc(N)nc6c5)cc4n3)C2)CCN1 [Compound 268] | < 1 | < 0.1 | < 10 | < 10 |

| SMILES | IC50 (PI3K γ (p110γ)) [µM] | IC50 (PI3K α (p110α/p85α)) [µM] | IC50 (PI3K β (p110β/p85α)) [µM] | IC50 (PI3K δ) [µM] |
| --- | --- | --- | --- | --- |
| Nc1nc2cc(-c3ccc4ncn(CCCN5CCCC5)c(=O)c4c3)ccc2o1 [Compound 271] | > 10 | < 1 | < 10 | < 10 |
| COCCn1cnc2ccc(-c3ccc4oc(N)nc4c3)cc2c1=O [Compound 272] | < 10 | < 1 | < 10 | > 10 |
| CN1CCN(CCNc2cnc3ccc(-c4ccc5oc(N)nc5c4)cc3n2)CC1 [Compound 275] | < 1 | < 0.1 | < 1 | < 1 |
| Nc1nc2cc(-c3ccc4ncc(N5CCN(C(=O)CN6CCCC6)CC5)nc4c3)ccc2o1 [Compound 278] | < 1 | < 0.1 | < 1 | < 10 |
| CCN(CC)CC(=O)N1CCN(c2cnc3ccc(-c4ccc5oc(N)nc5c4)cc3n2)CC1 [Compound 279] | < 10 | < 0.1 | < 10 | < 10 |
| CN1CCN(CCn2cnc3ccc(-c4ccc5oc(N)nc5c4)cc3c2=O)CC1 [Compound 280] | > 10 | < 10 | > 10 | > 10 |
| CC(C)N1CCN(C(=O)C2CN(c3cnc4ccc(-c5ccc6oc(N)nc6c5)cc4n3)C2)CC1 [Compound 285] | < 1 | < 0.1 | < 10 | < 1 |
| Nc1nc2cc(-c3ccc4ncc(N5CCN(C(=O)C6(N)CCC6)CC5)nc4c3)ccc2o1 [Compound 286] | < 0.1 | < 0.1 | < 1 | < 1 |
| Nc1nc2cc(-c3ccc4ncc(N5CC(C(=O)N6CCN(CC7CC7)CC6)C5)nc4c3)ccc2o1 [Compound 287] | < 1 | < 0.1 | < 10 | < 1 |
| Nc1nc2cc(-c3ccc4ncc(C(=O)NCCCN5CCOCC5)n4c3)ccc2o1 [Compound 288] | < 10 | < 1 | < 1 | < 1 |
| Nc1nc2cc(-c3ccc4ncn(CCN5CCOCC5)c(=O)c4c3)ccc2o1 [Compound 289] | < 1 | < 1 | < 10 | > 10 |
| Nc1nc2cc(-c3ccc4ncn(CCCN5CCOCC5)c(=O)c4c3)ccc2o1 [Compound 290] | > 10 | < 1 | > 10 | > 10 |
| CN1CCN(CCCn2cnc3ccc(-c4ccc5oc(N)nc5c4)cc3c2=O)CC1 [Compound 291] | > 10 | < 1 | > 10 | > 10 |
| CN(C)CCn1cnc2ccc(-c3ccc4oc(N)nc4c3)cc2c1=O [Compound 292] | > 10 | < 10 | > 10 | > 10 |
| Nc1nc2cc(-c3ccc4ncc(C(=O)NCCCN5CCCC5)n4c3)ccc2o1 [Compound 293] | < 1 | < 0.1 | < 1 | < 0.1 |
| CCN(CC)CCNC(=O)c1cnc2ccc(-c3ccc4oc(N)nc4c3)cn12 [Compound 295] | < 1 | < 1 | < 1 | < 1 |
| Cc1ccn(C2CCN(C(=O)c3cnc4ccc(-c5ccc6oc(N)nc6c5)cn34)CC2)n1 [Compound 297] | < 10 | < 1 | > 10 | > 10 |
| Nc1nc2cc(-c3ccc4ncc(N5CCN(C(=O)[C@H](N)CO)CC5)nc4c3)ccc2o1 [Compound 299] | < 0.1 | < 0.1 | < 1 | < 0.1 |
| Nc1nc2ccc(-c3ccc4nnc(-c5cccnc5)n4c3)cc2o1 [Compound 301] | > 10 | < 10 | < 10 | > 10 |
| CCN(CC)CCCNC(=O)c1cnc2ccc(-c3ccc4oc(N)nc4c3)cn12 [Compound 302] | < 10 | < 1 | < 10 | < 0.1 |
| Nc1nc2ccc(-c3ccc4nnc(C(=O)N5CCCC5)n4c3)cc2o1 [Compound 305] | > 10 | < 10 | > 10 | > 10 |
| C[C@H]1CN(c2cnc3ccc(-c4ccc5sc(N)nc5c4)cc3n2)CCN1 [Compound 307] | > 10 | < 1 | < 1 | > 10 |
| C[C@H]1CN(c2cnc3ccc(-c4ccc5nc(N)oc5c4)cc3n2)CCN1 [Compound 309] | < 10 | < 1 | < 1 | > 10 |
| C[C@H]1CN(c2cnc3ccc(-c4cccc5nc(N)oc45)cc3n2)CCN1 [Compound 310] | > 10 | > 10 | > 10 | > 10 |
| Cc1nc(NC(=O)N2CCC[C@H]2C(N)=O)sc1-c1ccc2oc(N)nc2c1 [Compound 311] | > 10 | < 1 | > 10 | > 10 |
